Reference: patent US20250353858A1, “CONDENSED HETEROCYCLIC COMPOUNDS AS INHIBITOR OF DIACYLGLYCEROL KINASES” (BEONE MEDICINES I GMBH, priority 2023, published 2025)

How the values were obtained:
[1] = target: DGKα (Homo sapiens (Human), UniProt P23743); test: Biochemical DGK IC50 assay (ADP-Glo, lipid micelle substrate), DGKα; settings: full length DGKα […], ATP 140 μM, DAG 80 μM; note: full length DGKα 7.5 nM
Method: (§1) Enzymatic reactions of DGKζ, DGKα and DGKδ were performed using ADP-Glo assay with lipid micelle substrate. […] Full length DGKα (D21-10BG, SignalChem) and full length DGKδ (D23-10G, SignalChem) were purchased. Lipid micelle was prepared by dissolving DAG (Sigma, 317505-10MG) and PS (Sigma, P7769-100MG) with chloroform which was furtherly removed by rotary evaporation. The resulted product was resuspended in buffer containing 25 mM HEPES pH 7.0, 0.5 mM EDTA and 160 mM Octyl β-D glucopyranoside by vigorous mixing and ultrasonic (IID, Scientz).
(§2) The inhibition activities testing for the compound disclosed herein were carried out at room temperature in assay buffer containing 50 mM HEPES, 10 mM MgCl2, 0.01% BSA, 0.1 mM Na3VO4, 0.005% Tween-20 and 0.01 mM CaCl2. Compounds in DMSO were dispensed into wells of a black 384 well plate (Corning 4514) using D300e digital dispenser (Tecan). […] 3 μL 2× enzyme solution was added to wells. […] After 1 hour reaction, 5 μL ADP-Glo reagent (Promga V9101) was added and incubated for 40 minutes. 10 μL Kinase Detection reagent was added and incubated for 30 minutes. Luminescence was measured on a microplate reader (PHERAstar FSX, BMG labtech). The IC50s are calculated based on inhibition of enzyme activity in the presence of increasing concentrations of compounds.

[2] = target: DGKζ (Homo sapiens (Human), UniProt Q13574); test: Biochemical DGK IC50 assay (ADP-Glo, lipid micelle substrate), DGKζ; settings: full length DGKζ 0.5 nM, ATP 140 μM, DAG 80 μM
Sequence of DGKζ (Q13574 other isoform, or with tags, fused parts or gaps): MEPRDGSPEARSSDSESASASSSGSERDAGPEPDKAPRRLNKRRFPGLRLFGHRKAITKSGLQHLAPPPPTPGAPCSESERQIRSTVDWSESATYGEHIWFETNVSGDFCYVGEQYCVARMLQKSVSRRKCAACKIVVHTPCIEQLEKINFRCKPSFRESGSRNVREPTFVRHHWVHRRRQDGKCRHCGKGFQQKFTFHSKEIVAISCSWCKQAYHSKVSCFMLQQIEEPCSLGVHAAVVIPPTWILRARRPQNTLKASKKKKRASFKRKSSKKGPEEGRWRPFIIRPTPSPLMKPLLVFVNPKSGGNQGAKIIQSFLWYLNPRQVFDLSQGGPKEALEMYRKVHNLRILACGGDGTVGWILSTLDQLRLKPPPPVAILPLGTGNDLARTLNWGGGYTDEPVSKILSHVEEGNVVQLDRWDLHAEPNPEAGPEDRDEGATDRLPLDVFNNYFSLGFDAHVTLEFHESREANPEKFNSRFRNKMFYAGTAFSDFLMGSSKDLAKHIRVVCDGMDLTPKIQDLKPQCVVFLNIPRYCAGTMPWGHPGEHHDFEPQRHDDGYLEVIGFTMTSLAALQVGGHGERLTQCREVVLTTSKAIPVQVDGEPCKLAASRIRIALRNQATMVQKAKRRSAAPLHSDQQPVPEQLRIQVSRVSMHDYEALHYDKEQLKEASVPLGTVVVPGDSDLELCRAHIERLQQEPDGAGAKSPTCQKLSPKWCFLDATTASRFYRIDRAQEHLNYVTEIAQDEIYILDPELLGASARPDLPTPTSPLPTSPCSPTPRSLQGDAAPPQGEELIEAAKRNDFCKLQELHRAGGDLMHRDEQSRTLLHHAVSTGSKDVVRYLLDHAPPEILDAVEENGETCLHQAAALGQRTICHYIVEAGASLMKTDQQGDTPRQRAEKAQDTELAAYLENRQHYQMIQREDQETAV
Method: as §1, §2
Human His-TEV-DGK-zeta-pFastBac1 and human baculovirus samples was generated using the Bac-to-Bac baculovirus expression system (Invitrogen) according to the manufacturer's protocol. The DNA used for expression of DGK-zeta, have SEQ ID Nos: 1. Baculovirus amplification was achieved using infected SF9 cells at 1:2000 virus/cells ratios, and grown for 96 hours at 27° C. post-transfected.
Full length human DGKζ produced as described above, was purified from Sf9 baculovirus-infected insect cell paste. The cells were lysed using sonication method, and the lysates were clarified by centrifugation.

Sequence of DGKα (P23743 whole entry): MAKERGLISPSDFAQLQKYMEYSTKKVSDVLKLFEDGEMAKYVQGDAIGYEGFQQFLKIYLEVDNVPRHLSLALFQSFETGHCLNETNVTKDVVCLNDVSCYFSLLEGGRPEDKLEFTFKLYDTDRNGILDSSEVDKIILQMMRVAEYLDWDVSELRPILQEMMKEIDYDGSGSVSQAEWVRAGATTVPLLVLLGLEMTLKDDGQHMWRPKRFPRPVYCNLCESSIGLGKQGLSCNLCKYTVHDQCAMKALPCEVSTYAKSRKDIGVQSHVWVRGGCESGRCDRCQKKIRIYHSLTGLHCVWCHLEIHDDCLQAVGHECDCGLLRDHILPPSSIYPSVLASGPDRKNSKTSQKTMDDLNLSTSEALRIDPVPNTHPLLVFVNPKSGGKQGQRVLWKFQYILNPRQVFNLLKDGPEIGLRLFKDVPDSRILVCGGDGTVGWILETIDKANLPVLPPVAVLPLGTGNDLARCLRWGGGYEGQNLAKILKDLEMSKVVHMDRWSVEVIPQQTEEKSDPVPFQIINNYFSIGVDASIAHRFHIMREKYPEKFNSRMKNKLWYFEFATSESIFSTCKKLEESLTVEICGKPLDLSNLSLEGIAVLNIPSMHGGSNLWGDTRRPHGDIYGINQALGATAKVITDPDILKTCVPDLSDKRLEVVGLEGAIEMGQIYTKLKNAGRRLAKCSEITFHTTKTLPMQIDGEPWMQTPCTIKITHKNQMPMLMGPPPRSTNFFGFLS

Row | Structure (SMILES) | IC50 [1] [nM] | IC50 [2] [nM]
1 | CC[C@H]1CN(C(C)c2ccn3nc(C)cc3c2)[C@H](CC)CN1c1nc(=O)n(C)c2cc(CC#N)nn12 (stereo partly drawn) [Compound A55, 2-(4-((2S,5R)-2,5-diethyl-4-(1-(2-methylpyrazolo[1,5-a]pyridin-5-yl)ethyl)piperazin-1-yl)-1-methyl-2-oxo-1,2-dihydropyrazolo[1,5-a][1,3,5]triazin-7-yl)acetonitrile] | 150 | 53
2 | CC[C@H]1CN(C(C)c2ccn3nc(F)cc3n2)[C@H](CC)CN1c1nc(=O)n(C)c2cc(CC#N)nn12 (stereo partly drawn) [Compound A56, 2-(4-((2S,5R)-2,5-diethyl-4-(1-(2-fluoropyrazolo[1,5-a]pyrimidin-5-yl)ethyl)piperazin-1-yl)-1-methyl-2-oxo-1,2-dihydropyrazolo[1,5-a][1,3,5]triazin-7-yl)acetonitrile] | 17 | 73
3 | CC[C@H]1CN(C(C)c2ccn3nc(Cl)cc3n2)[C@H](CC)CN1c1nc(=O)n(C)c2cc(CC#N)nn12 (stereo partly drawn) [Compound A58, 2-(4-((2S,5R)-4-(l-(2-chloropyrazolo[1,5-a]pyrimidin-5-yl)ethyl)-2,5-diethylpiperazin-1-yl)-1-methyl-2-oxo-1,2-dihydropyrazolo[1,5-a][1,3,5]triazin-7-yl)acetonitrile] | 15 | 42
4 | CC[C@H]1CN(C(C)c2ccn3nc(Cl)c(F)c3n2)[C@H](CC)CN1c1nc(=O)n(C)c2cc(CC#N)nn12 (stereo partly drawn) [Compound A59, 2-(4-((2S,5R)-4-(1-(2-chloro-3-fluoropyrazolo[1,5-a]pyrimidin-5-yl)ethyl)-2,5-diethylpiperazin-1-yl)-1-methyl-2-oxo-1,2-dihydropyrazolo[1,5-a][1,3,5]triazin-7-yl)acetonitrile] | 111 | 38
5 | CC[C@H]1CN(C(C)c2ccn3nc(F)c(F)c3n2)[C@H](CC)CN1c1nc(=O)n(C)c2cc(CC#N)nn12 (stereo partly drawn) [Compound A60, 2-(4-((2S,5R)-4-(1-(2,3-difluoropyrazolo[1,5-a]pyrimidin-5-yl)ethyl)-2,5-diethylpiperazin-1-yl)-1-methyl-2-oxo-1,2-dihydropyrazolo[1,5-a][1,3,5]triazin-7-yl)acetonitrile] | 63 | 40
